Data: patent US11059795B2, “Androgen receptor modulators and methods for their use” (ESSA Pharma, Inc., priority 2018, dated 2021)

Assays:
[1] = tested on: LNCaP cells; test: Cell proliferation/viability assay, LNCaP (Alamar blue); format: cell-based; conditions: Homo sapiens, AR specific proliferation with 0.1 nM R1881, read-out: Cellular Proliferation/Viability IC50 (μM) LNCaP
Protocol: (§1) Cell proliferation/viability was measured in LNCaP and PC3 cells with Alamar blue, and proliferation was measured in LN-CaP95 cells with BrdU incorporation. In LNCaP cells, AR specific proliferation is calculated by measuring the difference between control cells treated with or without 0.1 nM R1881.

[2] = Hepatocyte stability assay, rat hepatocytes; format: in vitro ADME; conditions: cryopreserved hepatocytes, read-out: Hepatocytes T½ (min) Rat
From the text: The […] of in vitro intrinsic clearance (Clint) for drug candidates in the early discovery stage is common practice in the pharmaceutical industry. The Clint values of drug candidates can help to confirm whether metabolism is the main clearance pathway when it is compared with the total body clearance in vivo. Hepatocytes are among the routinely used in vitro systems for measuring clearance. Hepatocytes have been reported to retain most of the phase I and phase II metabolic activities, and therefore, it is a useful tool to estimate the intrinsic clearance for potential drug candidates.
Metabolic stability of testing compound were be evaluated using human and mouse hepatocytes and can also be use rat, mouse, or other animal hepatocytes to predict intrinsic clearance. Cryopreserved hepatocytes were removed from the liquid nitrogen tank and thawed in a 37° C. water bath. As soon as the cells pulled away from the vial wall, they were decanted into 48 ml of warm HT medium. Cells were centrifuged for four minutes at 420 rpm (50 g). After removing the supernatant, pellet was re-suspended in warm DMEM medium. Cell density was counted by a hemacytometer.
The assay was carried out in 96-well microtiter plates. Compounds were incubated for 0, 60, 120, and 180 minutes at 37° C. with hepatocytes. Reaction mixtures (50 μL) contained a final concentration of 1 μM test compound, 0.5 million cells/mL hepatocytes in the DMEM medium. At each of the time points (for example, 0, 1, 2, and 3 hours), 200 μL of quench solution (100% acetonitrile with 0.1% formic acid) with internal standard was transferred to each well. Midazolam was included as a positive control to verify assay performance. Plates were sealed and centrifuged at 4° C. for 15 minutes at 4000 rpm. The supernatant is transferred to fresh plates for LC/MS/MS analysis.
Summarized conditions (customizable): [Compound]=[…], Positive control: midazolam and/or naloxone, [Hepatocyte]=0.5 million cells/Ml, time=0, 60, 120, and 180 min, t=37° C.
(§2) All samples were analyzed on LC/MS/MS using an AB Sciex API 4000 instrument, coupled to a Shimadzu LC-20AD LC Pump system. Analytical samples were separated using a Waters Atlantis T3 dC18 reverse phase HPLC column (20 mm×2.1 mm) at a flow rate of 0.5 mL/min. The mobile phase consisted of 0.1% formic acid in water (solvent A) and 0.1% formic acid in 100% acetonitrile (solvent B).
The extent of metabolism was calculated as the disappearance of the test compound, compared to the 0-min control reaction incubations. Initial rates were calculated for the compound concentration and used to determine t½ values and subsequently, the intrinsic clearance, Clint. Clint=(0.693)(1/t½(min))(mL incubation/million cells)

[3] = tested on: LN-CaP95 cells; test: Cell proliferation assay, LNCaP95 (BrdU incorporation); format: cell-based; conditions: LNCaP-95, read-out: Cellular Proliferation/Viability IC50 (μM) LNCaP95
Protocol: as §1

[4] = tested on: PC3 cells; test: Cell proliferation/viability assay, PC3 (Alamar blue); format: cell-based; conditions: Homo sapiens; PC-3, Alamar blue; read-out: Cellular Proliferation/Viability IC50 (μM) PC-3
Protocol: as §1

[5] = Microsomal stability assay, dog liver microsomes; format: in vitro ADME; conditions: pH 7.4, read-out: Liver microsome T½ (min) Dog
Protocol: Microsomal stability assay is a widely used in vitro model to characterize the metabolic conversion by phase I enzymes, such as cytochrome P450 (CYP) enzymes. Since metabolism is known to be highly variable in different species, microsomal stability assay is commonly run in multiple species. Metabolic stability of testing compound can be evaluated using human, rat, mouse, or other animal liver or intestine microsomes to predict intrinsic clearance.
The assay was carried out in 96-well microtiter plates at 37° C. Reaction mixtures (25 μL) contained a final concentration of 1 μM test compound, 0.5 mg/mL liver microsomes protein, and 1 mM NADPH and/or 1 mM UDPGA (with alamethicin) in 100 mM potassium phosphate, pH 7.4 buffer with 3 mM MgCl2. The incubation was done with N=1, but duplicate incubation at each time point can be prepared if necessary. At each of the time points (for example, 0, 15, 30, and 60 minutes), 150 μL of quench solution (100% acetonitrile with 0.1% formic acid) with internal standard was transferred to each well. Besides the zero minute controls, mixtures containing the same components except the NADPH can also be prepared as the negative control. Verapamil was included as a positive control to verify assay performance. Plates were sealed, vortexed, and centrifuged at 4° C. for 15 minutes at 4000 rpm. The supernatant is transferred to fresh plates for LC/MS/MS analysis.
Summarized conditions: [Compound]=[…], [LM]=0.5 mg/mL, [NADPH]=1 mM and/or [UDPGA]=1 mM, Buffer=100 mM Potassium Phosphate, pH 7.4 with 3 mM MgCl2, Time=0, 15, 30, and 60 min, and Temperature=37° C.
as §2
The extent of metabolism is calculated as the disappearance of the test compound, compared to the 0-min time incubation. Initial rates are calculated for the compound concentration and used to determine half-life (t½) values and subsequently, the intrinsic clearance (Clint). Clint=(0.693)(1/t½ (min))(g of liver/kg of body weight)(mL incubation/mg of microsomal protein)(45 mg of microsomal protein/g of liver weight)

[6] = tested on: LNCaP tumors; test: LNCaP xenografts model in castrated male NCG mice; format: in vivo; conditions: Table 4; extrapolated Cmin in efficacy
Protocol: Tumor growth was measured in male NCG mice bearing LNCaP tumors. Castration was performed when tumors reached ˜100 mm^3 and dosing (60 mg/kg PO qd) started 1 week after castration. […] Individual tumor volume change from baseline measured at the end of the experiment.

Molecule `CC(C)(c1ccc(OCc2ccnc(NS(C)(=O)=O)n2)cc1)c1cc(Cl)c(OCCCl)c(C#N)c1` [Compound A109, N-(4-((4-(2-(3-chloro-4-(2-chloroethoxy)-5-cyanophenyl)propan-2-yl)phenoxy)methyl)pyrimidin-2-yl)methanesulfonamide] has an IC50 [1] of 0.44 µM, a half-life at 1 μM [2] greater than 360 min and an IC50 [3] of 3.78 µM. For the same molecule, the IC50 [4] was greater than 10 µM, the half-life at 1 μM [5] was greater than 120 min and the “Cmin at 5 mg/kg PO” value [6] was 8.18 µM.
Molecule `CC(C)(c1ccc(OCc2ocnc2S(C)(=O)=O)cc1)c1cc(Cl)c(OCCCl)c(C#N)c1` [Compound A28, 3-chloro-2-(2-chloroethoxy)-5-(2-(4-((4-(methylsulfonyl)oxazol-5-yl)methoxy)phenyl)propan-2-yl)benzonitrile] has an IC50 [1] of 0.68 µM, a half-life at 1 μM [2] of 31 min and an IC50 [3] of 6.43 µM. The IC50 [4] was greater than 10 µM and the half-life at 1 μM [5] was greater than 120 min.
`CC(C)(c1ccc(OCc2coc(NS(C)(=O)=O)n2)cc1)c1cc(Cl)c(OCCCl)c(Cl)c1` [Compound A38, N-(4-((4-(2-(3,5-dichloro-4-(2-chloroethoxy)phenyl)propan-2-yl)phenoxy)methyl)oxazol-2-yl)methanesulfonamide] showed a half-life at 1 μM [2] of 56 min and a half-life at 1 μM [5] greater than 120 min.
In the case of `CC(C)(c1ccc(OCc2ocnc2S(C)(=O)=O)cc1)c1cc(Cl)c(OCCCl)c(Cl)c1` [Compound A13, 5-((4-(2-(3,5-dichloro-4-(2-chloroethoxy)phenyl)propan-2-yl)phenoxy)methyl)-4-(methylsulfonyl)oxazole], the IC50 [1] is reported as 0.85 µM, the half-life at 1 μM [2] is reported as 75 min and the IC50 [3] is reported as 4 µM. For the same molecule, the IC50 [4] was greater than 10 µM, the half-life at 1 μM [5] was greater than 120 min and the “Cmin at 5 mg/kg PO” value [6] was 2.78 µM.
For `CC(C)(c1ccc(OC[C@H](O)CNS(C)(=O)=O)cc1)c1cc(Cl)c(OC[C@H](O)CCl)c(Cl)c1` [X, reference compound], the IC50 [1] was 3 µM, the IC50 [3] was 4 µM and the IC50 [4] was greater than 10 µM.
`CC(C)(c1ccc(OCc2ncc(S(C)(=O)=O)s2)cc1)c1cc(Cl)c(OCCCl)c(C#N)c1` [Compound A93, 3-chloro-2-(2-chloroethoxy)-5-(2-(4-((5-(methylsulfonyl)thiazol-2-yl)methoxy)phenyl)propan-2-yl)benzonitrile] showed a half-life at 1 μM [2] of 94 min and a half-life at 1 μM [5] greater than 120 min.
`CC(C)(c1ccc(OCc2ccnc(NS(C)(=O)=O)n2)cc1)c1cc(Cl)c(OCCCl)c(Cl)c1` [Compound A74, N-(4-((4-(2-(3,5-dichloro-4-(2-chloroethoxy)phenyl)propan-2-yl)phenoxy)methyl)pyrimidin-2-yl)methanesulfonamide] showed an IC50 [1] of 1.16 µM, a half-life at 1 μM [2] greater than 360 min and an IC50 [3] of 2.65 µM. For the same molecule, the IC50 [4] was greater than 10 µM, the half-life at 1 μM [5] was greater than 120 min and the “Cmin at 5 mg/kg PO” value [6] was 29.1 µM.
